The nature of data set [1]: Solubility testing in water, SGF, FaSSIF, FeSSIF at 37° C. Format: physicochemical. The note with it: for Solubility / Solubility (mg/mL): 37° C. The procedure:
About 15 mg of sample was weighed into each sample vial and then 3.0 mL of water, simulated gastric fluid (SGF), Fasted State Simulated Intestinal Fluid (FaSSIF) or Fed State Simulated Intestinal Fluid (FeSSIF) media was added. Samples were prepared in triplicate for each media. The suspensions were kept shaking at 37° C. for up to 24 h. At 0.5, 2 and 24 h, suspensions were filtered and the filtrate was analyzed by HPLC.

Data set [2] can be described thus: 7-day stability testing of solid forms (HPLC purity, XRPD). The class given is physicochemical. The procedure:
About 10 mg of freebase Form I, HCl salt Form II, Succinate Form I and received HCl salt Form I were placed at 60° C./capped and 40° C./75% RH (open), respectively. Samples were prepared in duplicate for each condition. At day 0 and day 7, the samples were analyzed by HPLC and XRPD to check the purity and crystal form, respectively.

Setting [3] is: FaSSIF (pH of media 6.5), 0.5 h.
[4] abbreviates: FeSSIF (pH of media 5.0), 0.5 h.
The mark [5] stands for this setting: pH of sample in FaSSIF (pH of media 6.5), 0.5 h.
Setting [6] is: pH of sample in FaSSIF (pH of media 6.5), 2 h.
[7] abbreviates: pH of sample in FaSSIF (pH of media 6.5), 24 h.
[8] abbreviates: pH of sample in FeSSIF (pH of media 5.0), 0.5 h.
Setting [9] is: pH of sample in FeSSIF (pH of media 5.0), 2 h.
The mark [10] stands for this setting: pH of sample in FeSSIF (pH of media 5.0), 24 h.
The mark [11] stands for this setting: pH of sample in SGF (pH of media 1.2), 0.5 h.
The mark [12] stands for this setting: pH of sample in SGF (pH of media 1.2), 2 h.
[13] abbreviates: pH of sample in SGF (pH of media 1.2), 24 h.
Where [14] appears, read: pH of sample in Water (pH of media 7.9), 0.5 h.
Setting [15] is: pH of sample in Water (pH of media 7.9), 2 h.
Where [16] appears, read: pH of sample in Water (pH of media 7.9), 24 h.
Where [17] appears, read: Day 7, 40° C./75% RH (open), HPLC.

Values after ≈ are worked out from the molar mass of the structure shown. Counter-ions that a name gives are not always drawn.

`NCc1ccc(C(=O)Nc2ccncc2F)cc1-c1cccc(C(=O)Nc2ccc(SC[C@H]3CCOC3=O)cc2)c1` (stereo in doubt) [HCl salt Form I]: the “Solubility” value in data set [1] (setting [3]) was 23 µg/mL; in data set [1] (FaSSIF (pH of media 6.5), 2 h), 5 µg/mL; in data set [1] (setting [4]), 83 µg/mL; in data set [1] (FeSSIF (pH of media 5.0), 2 h), 91 µg/mL; in data set [1] (FeSSIF (pH of media 5.0), 24 h), 66 µg/mL; in data set [1] (SGF (pH of media 1.2), 0.5 h), 780 µg/mL. The “Solubility” value was found to be 841 µg/mL in data set [1] (SGF (pH of media 1.2), 2 h); 1355 µg/mL in data set [1] (SGF (pH of media 1.2), 24 h); 680 µg/mL in data set [1] (Water (pH of media 7.9), 0.5 h); 771 µg/mL in data set [1] (Water (pH of media 7.9), 2 h); 1411 µg/mL in data set [1] (Water (pH of media 7.9), 24 h). Further, the “Solubility (mg/mL)” value in data set [1] (FaSSIF (pH of media 6.5), 24 h) was “<LOD”. The pH in data set [1] (setting [5]) came out at 6.4; in data set [1] (setting [6]) it was 6.4; in data set [1] (setting [7]), 6.4; in data set [1] (setting [8]), 4.9; in data set [1] (setting [9]), 4.9; in data set [1] (setting [10]), 4.9. Also, the pH in data set [1] (setting [11]) came to 1.4; in data set [1] (setting [12]), 1.4; in data set [1] (setting [13]), 1.4; in data set [1] (setting [14]) it was 5.6; in data set [1] (setting [15]), 5.7; in data set [1] (setting [16]), 5.8.
With `NCc1ccc(C(=O)Nc2ccncc2F)cc1-c1cccc(C(=O)Nc2ccc(SC[C@H]3CCOC3=O)cc2)c1` [Freebase Form I], the “Purity (area %)” value is recorded as 96.89 area % in data set [2] (Day 0, HPLC); 93.87 area % in data set [2] (setting [17]); 95.01 area % in data set [2] (Day 7, 60° C./capped, HPLC). Further, the “Decrease in purity versus Day 0” value was determined as 3.0 area % in data set [2] (Day 7, 40° C./75% RH (open)) and 1.9 area % in data set [2] (Day 7, 60° C./capped). Further, the “XRPD (crystal form)” value in data set [2] (Day 7, 40° C./75% RH (open)) is “No change”; in data set [2] (Day 7, 60° C./capped) it was “No change”. Also, the “Solubility” value was found to be 14 µg/mL (≈ 24.5 µM) in data set [1] (setting [3]); 6 µg/mL (≈ 10.5 µM) in data set [1] (FaSSIF (pH of media 6.5), 2 h); 1 µg/mL (≈ 1.75 µM) in data set [1] (FaSSIF (pH of media 6.5), 24 h); 183 µg/mL (≈ 321 µM) in data set [1] (setting [4]); 126 µg/mL (≈ 221 µM) in data set [1] (FeSSIF (pH of media 5.0), 2 h); 59 µg/mL (≈ 103 µM) in data set [1] (FeSSIF (pH of media 5.0), 24 h). The “Solubility” value is approximately 5000 µg/mL (≈ 8760 µM) in data set [1] (SGF (pH of media 1.2), 0.5 h); approximately 5000 µg/mL (≈ 8760 µM) in data set [1] (SGF (pH of media 1.2), 2 h); approximately 5000 µg/mL (≈ 8760 µM) in data set [1] (SGF (pH of media 1.2), 24 h). Also, the “Solubility (mg/mL)” value in data set [1] (Water (pH of media 7.9), 0.5 h) was “<LOD”; in data set [1] (Water (pH of media 7.9), 2 h), “<LOD”; in data set [1] (Water (pH of media 7.9), 24 h) it was “<LOD”. The pH came to 6.4 in data set [1] (setting [5]); 6.4 in data set [1] (setting [6]); 6.5 in data set [1] (setting [7]); 5.0 in data set [1] (setting [8]); 5.0 in data set [1] (setting [9]); 5.0 in data set [1] (setting [10]). Besides, the pH in data set [1] (setting [11]) is 1.2; in data set [1] (setting [12]), 1.4; in data set [1] (setting [13]), 1.4; in data set [1] (setting [14]) it was 7.9; in data set [1] (setting [15]), 7.6; in data set [1] (setting [16]), 8.7.
On to `NCc1ccc(C(=O)Nc2ccncc2F)cc1-c1cccc(C(=O)Nc2ccc(SC[C@H]3CCOC3=O)cc2)c1` [HCl salt Form I], for which the “Purity (area %)” value is given as 97.62 area % in data set [2] (Day 0, HPLC, listed as HCI salt Form I); 97.62 area % in data set [2] (Day 7, 40° C./75% RH (open), HPLC, listed as HCI salt Form I); 97.61 area % in data set [2] (Day 7, 60° C./capped, HPLC, listed as HCI salt Form I). Moreover, the “XRPD (crystal form)” value is “No change” in data set [2] (Day 7, 40° C./75% RH (open)) and “No change” in data set [2] (Day 7, 60° C./capped).
Consider `NCc1ccc(C(=O)Nc2ccncc2F)cc1-c1cccc(C(=O)Nc2ccc(SC[C@H]3CCOC3=O)cc2)c1` [Succinate Form I], for which the “Purity (area %)” value worked out at 97.46 area % in data set [2] (Day 0, HPLC); 97.29 area % in data set [2] (setting [17]); 96.98 area % in data set [2] (Day 7, 60° C./capped, HPLC). Besides, the “Decrease in purity versus Day 0” value was found to be 0.2 area % in data set [2] (Day 7, 40° C./75% RH (open)) and 0.5 area % in data set [2] (Day 7, 60° C./capped). In addition, the “XRPD (crystal form)” value in data set [2] (Day 7, 40° C./75% RH (open)) is on record as “No change”; in data set [2] (Day 7, 60° C./capped), “No change”. In addition, the “Solubility” value in data set [1] (setting [3]) turned out to be 5 µg/mL; in data set [1] (FaSSIF (pH of media 6.5), 2 h), 2 µg/mL; in data set [1] (FaSSIF (pH of media 6.5), 24 h), 1 µg/mL; in data set [1] (setting [4]), 188 µg/mL; in data set [1] (FeSSIF (pH of media 5.0), 2 h), 173 µg/mL; in data set [1] (FeSSIF (pH of media 5.0), 24 h) it was 46 µg/mL. For the same compound, the “Solubility” value in data set [1] (SGF (pH of media 1.2), 0.5 h) came out at 3837 µg/mL; in data set [1] (SGF (pH of media 1.2), 2 h), 3826 µg/mL; in data set [1] (SGF (pH of media 1.2), 24 h), 4005 µg/mL; in data set [1] (Water (pH of media 7.9), 2 h) it was 328 µg/mL; in data set [1] (Water (pH of media 7.9), 24 h), 546 µg/mL. Also, the “Solubility in SGF (in words)” value in data set [1] (SGF, comparison with HCl Salt Form 1) is given as “more soluble in SGF than HCl Salt Form 1”. Besides, the pH in data set [1] (setting [5]) is 5.7; in data set [1] (setting [6]), 5.7; in data set [1] (setting [7]), 5.6; in data set [1] (setting [8]) it was 4.8; in data set [1] (setting [9]), 4.8; in data set [1] (setting [10]) it was 4.8. Besides, the pH stood at 1.3 in data set [1] (setting [11]); 1.4 in data set [1] (setting [12]); 1.3 in data set [1] (setting [13]); 4.3 in data set [1] (setting [14]); 4.2 in data set [1] (setting [15]); 4.1 in data set [1] (setting [16]). This compound returned a solubility at 0.5 h in data set [1] (water, 37 °C, pH 7.9, water, thermodynamic from solid, Water (pH of media 7.9), 0.5 h) of 363 µg/mL.

Usually Solubility stands for the concentration that dissolves in the medium under given conditions. Low readings indicate a poorly soluble substance, high ones a readily soluble substance. The solubility is the concentration that dissolves in the medium under given conditions. The low end stands for little dissolved substance, the high end for much dissolved substance.

The values are drawn from patent US20260078108A1, “SOLID FORMS OF A ROCK INHIBITOR” (REDX PHARMA PLC, priority 2022, published 2026).
